The source of these data is EPA's ToxValDB 9.5 (doi:10.2903/j.efsa.2013.3253).

≈ marks a conversion by molar mass, not a printed value. Some results are limits rather than exact numbers.

In data set [1] the test system is Canidae. As to conditions: chronic; duration: 1 years; oral; Dog Other; histopathology: nonneoplastic.
Data set [2] relates to Tagia sp. Conditions: acute; duration: 14 days; mortality.
Data set [3] deals with Apis mellifera. As to conditions: acute, duration: 48 hours, mortality.
Data set [4] deals with Neomysis kadiakensis. Conditions: acute; duration: 96 hours; mortality.
Data set [5] has as its system Colinus virginianus.
Data set [6] concerns Anas platyrhynchos.
In data set [7] the test system is Daphnia magna. Conditions: chronic/long-term; duration: 22 days; reproduction.
Data set [8] deals with Pimephales promelas. As to conditions: chronic/long-term; duration: 33 days; growth.
Data set [9] has as its system Rattus norvegicus. As to conditions: mortality.
Data set [10] has as its system Cyprinodon variegatus. Conditions: acute; duration: 96 hours; mortality.

Turning to `COC(=O)CC(NC(=O)[C@@H](NC(=O)OC(C)C)C(C)C)c1ccc(Cl)cc1` (stereo partly specified) [Valifenalate], the NOAEL – broadly, the highest tested level that showed no adverse finding – in data set [1] worked out at 7 mg/kg-day; in data set [5] (reproduction developmental, reproduction), 104 mg/kg-day; in [6] (reproductive, reproduction), 167 mg/kg-day; in data set [9] (reproduction developmental), 80 mg/kg-day. The LC50 in data set [2] is more than 1000 mg/kg; in data set [4] it was 2.8 µg/mL (≈ 7.02 µM); in data set [5] (acute, oral, diet, mortality), more than 1510 mg/kg-day; in [6] (short-term, oral, feed, mortality), more than 2650 mg/kg-day; in data set [10], more than 15 µg/mL. In addition, the LD50 in data set [3] (dermal) was more than 100 µg/piece; in [3] (oral, unspecified), more than 107 µg/piece; in data set [5] (acute, oral, mortality), more than 2250 mg/kg; in [6] (acute, oral, unspecified, mortality), more than 2250 mg/kg; in data set [9] (acute, oral), more than 5000 mg/kg. Besides, the figures for the NOEC in data set [7] and in data set [8] were 3.2 mg/L and 12 mg/L, respectively.
